From patent US7045513B1, “DHEA composition and method” (priority 1999, dated 2006)

Assays:
[1] = Solid form stability of form I after 1, 2, 3 and 6 months, by 13C-SSNMR; format: physicochemical
Procedure: Solid State NMR Method (SSNMR). SSNMR spectra were obtained on a General Electric Omega PSG, 100 MHz spectrometer using about 50 mg of sample in a 5-mm diameter zirconia rotor. High-power proton decoupling and cross-polarization with magic-angle spinning at approximately 5 kHz were used. The magic angle was adjusted using the Br signal of KBr by detecting the side bands as described by Frye and Maciel, 1982. The chemical shifts were referenced externally to the CH resonance of adamantane at 29.50 ppm. Curve fitting of selected peaks for integration was performed as described by MacDonald (1980). The following peaks were used to measure forms I, II and VI: sum of peaks at 118.8 and 120.3 ppm (form I), peak at 119.8 ppm (form II), and peak at 118.5 ppm (form VI).

[2] = 14-day stress study of DHEA forms I and II, monitored by XRPD; format: physicochemical; settings: for Stability (summary): ambient conditions and heat at non-saturating humidity; for Stability to solid form conversion: ambient temperature and 50° C., two weeks, RH as high as 84%
Procedure: Little weight gain (<0.8%) is observed in these samples. (Weight losses observed at 50° C. could be due to loss of residual solvent, sublimation of sample, and/or thermal degradation.)
X-Ray Powder Diffraction (XRPD). XRPD analyses were carried out on a Siemens D-500 X-ray Powder Diffractometer-Kristaloflex or a Shimadzu XRD-6000 X-ray powder diffractometer using Cu Kα radiation (1.5406 Å).
The Siemens instrument was equipped with an IBM-compatible interface and utilized DIFFRAC AT software (SOCABIM, 1994). Slits I and II were set at 1° and the radiation was electronically filtered by a Kevex Psi Peltier cooled silicon detector with slits III at 1° and IV at 0.15°. A continuous theta-two theta scan at 6°/min (0.4 sec/0.04° step) from 4 to 40°2θ was used. A silicon standard was analyzed each day to check the instrument alignment. Each sample was prepared by pressing a small amount of the powder onto a zero-background quartz-in-aluminum sample holder.
The Shimadzu instrument was equipped with a fine-focus X-ray tube. The tube power was set at 40 kV, 40 mA. The divergence and scattering slits were set at 1° and the receiving slit was set at 0.15 mm. Diffracted radiation was detected by an NaI scintillation detector. A theta-two theta continuous scan at 3°/min (0.4 sec/0.02° step) from 4 to 40°2θ was used. A silicon standard was analyzed each day to check the instrument alignment, and an alumina standard was analyzed each day to check the X-ray tube output. Each sample was prepared for analysis by pressing it with a spatula onto a glass or quartz sample holder.

[3] = Single dose pharmacokinetic study of orally administered DHEA formulations; format: in vivo, human; settings: conclusion drawn from the single dose study
Procedure: Example 2 describes a study in which 34 healthy postmenopausal women were administered orally one of three formulations of DHEA, each prepared from commercially available DHEA, in capsular form. The formulations were administered in single dosages of four opaque, size 2 capsules, each capsules containing 50 mg DHEA, 152 mg lactose (169 mg for formulation 3), 108 mg corn starch, and 3 mg magnesium stearate.
Blood samples were collected prior to and at various times after administration, and the levels of DHEA and DHEA-S were measured by immunoassay. […]
AUC (area under curve) is an indicator of extent of absorption; Cmax and Tmax are indicators of rate of absorption. Serum DHEA concentrations for all samples were above the assay limit of quantification. […]
DHEA levels were determined by radioimmunoassay (RIA) at Endocrine Sciences Inc., after non-polar solvent extraction. […] Internal assay controls were monitored via control charts. […]. […]
Adjusted serum levels were calculated by subtracting baseline (average of −0.5 hr and 0 hr serum levels). […] For DHEA and DHEA-S, the peak serum concentration (Cmax) and time to peak concentration (Tmax) were assessed from the concentration-time data. […]

[4] = 25° C. (ambient temperature), 95% RH

SMILES	Final Form (by 13C-SSNMR), 1, 2, 3, and 6 months ([1]; 25° C., 58% RH)	Final Form (by 13C-SSNMR), 1, 2, 3, and 6 months ([1]; 40° C. (footnote b), 75% RH)	Final Form (by XRPD), 14 days [2, 4]	Wt change, % (14 days) ([2]; 25° C., 58% RH, 14 days)	Wt change, % (14 days) ([2]; 25° C., 75% RH, 14 days)	Wt change, % (14 days) ([2]; 25° C., 84% RH, 14 days)	Wt change, % (14 days) ([2]; 25° C., 95% RH, 14 days)	Wt change, % (14 days) ([2]; 50° C., 58% RH, 14 days)	Wt change, % (14 days) ([2]; 50° C., 75% RH, 14 days)	Wt change, % (14 days) ([2]; 50° C., 84% RH, 14 days)	Final Form (by XRPD), 14 days ([2]; 50° C., 95% RH)	Wt change, % (14 days) ([2]; 50° C., 95% RH, 14 days)	Stability (summary) [2]	Stability to solid form conversion [2]	Overall stability, form I compared with form II ([2]; summary of the stability studies)	Bioavailability when administered orally [3]	Final Form (by XRPD), 14 days ([2]; 50° C., 75% RH)	Final Form (by XRPD), 14 days ([2]; 50° C., 84% RH)	Solid form conversion ([2]; 50°, RH of 75% or greater, 14 days)
C[C@]12CC[C@H](O)CC1=CC[C@@H]1[C@@H]2CC[C@]2(C)C(=O)CC[C@@H]12 [Form I, dehydroepiandrosterone]	remained stable to solid form conversion	remained stable to solid form conversion	stable	−0.6%	+0.3%	+0.1%	+0.2%	−1%	−3%	−2%	converted to S2	+1%	stable	stable to solid form conversion	greater overall stability	high bioavailability	–	–	–
C[C@]12CC[C@H](O)CC1=CC[C@@H]1[C@@H]2CC[C@]2(C)C(=O)CC[C@@H]12 [Form II, dehydroepiandrosterone]	–	–	converted to S2	0%	−0.3%	+0.2%	+5%	−1%	−2%	−0.3%	II + S1	+1%	stable	stable to solid form conversion	–	high bioavailability	II + S1	II + S1	partially converted to S1
